Assay [1] concerns the target SMARCA2 (Homo sapiens, UniProt P51531). The experiment in a line: HiBit assay in engineered HT1080 CRISPR knock-in cell, 6 hrs (B series), SMARCA2. The assay is classed as cell-based. As to conditions: 6 hrs incubation; for DC50: HT1080 CRISPR knock-in cells, read-out: SMARC A2 HT1080 HiBit DC50; for Dmax: HT-1080, HT1080 CRISPR knock-in cells, read-out: SMARC A2 HT1080 HiBit Dmax (%). How it is done:
(§1) The HiBit assay was performed using engineered HT1080 CRISPR knock-in cell utilizing the Nano-Glo HiBiT Lytic Detection System from Promega, Cat #N3040. Compounds were transferred, 25 nL DMSO or test compounds (final DMSO @ 0.1%) to intermediate plates (Corning3570) using ECHO550. Cells were seeded onto compounds at 2000 cells/25 μL/well and incubated for 6 hrs in a tissue culture incubator at 37° C. and 5% CO2. The LgBiT Protein was diluted at 1:100 and the Nano-Glo® HiBIT Lytic Substrate 1:50 into an appropriate volume of room temperature using the Nano-Glo® HiBiT Lytic Buffer. At the end of compound incubation time, 15 ul of the detection reagent was added to each well (without LgBiT for negative control wells) using the Thermo Scientific multidrop combi. The plate was shaken for 10 mins at RT using Combi. After briefly centrifugation (2000 rpm 1 mins), plate was read on Envision (Ultrasensitive luminescence model).

For assay [2], the target named is SMARCA4 (Homo sapiens, UniProt P51532). As to the kind of experiment: HiBit assay in engineered HT1080 CRISPR knock-in cell, 6 hrs (B series), SMARCA4. The format is cell-based. As to conditions: 6 hrs incubation; for DC50: HT1080 CRISPR knock-in cells, read-out: SMARC A4 HT1080 HiBit DC50; for Dmax: HT-1080, HT1080 CRISPR knock-in cells, read-out: SMARC A4 HT1080 HiBit Dmax(%). How it is done: as §1
Chain of SMARCA4 (P51532 whole entry): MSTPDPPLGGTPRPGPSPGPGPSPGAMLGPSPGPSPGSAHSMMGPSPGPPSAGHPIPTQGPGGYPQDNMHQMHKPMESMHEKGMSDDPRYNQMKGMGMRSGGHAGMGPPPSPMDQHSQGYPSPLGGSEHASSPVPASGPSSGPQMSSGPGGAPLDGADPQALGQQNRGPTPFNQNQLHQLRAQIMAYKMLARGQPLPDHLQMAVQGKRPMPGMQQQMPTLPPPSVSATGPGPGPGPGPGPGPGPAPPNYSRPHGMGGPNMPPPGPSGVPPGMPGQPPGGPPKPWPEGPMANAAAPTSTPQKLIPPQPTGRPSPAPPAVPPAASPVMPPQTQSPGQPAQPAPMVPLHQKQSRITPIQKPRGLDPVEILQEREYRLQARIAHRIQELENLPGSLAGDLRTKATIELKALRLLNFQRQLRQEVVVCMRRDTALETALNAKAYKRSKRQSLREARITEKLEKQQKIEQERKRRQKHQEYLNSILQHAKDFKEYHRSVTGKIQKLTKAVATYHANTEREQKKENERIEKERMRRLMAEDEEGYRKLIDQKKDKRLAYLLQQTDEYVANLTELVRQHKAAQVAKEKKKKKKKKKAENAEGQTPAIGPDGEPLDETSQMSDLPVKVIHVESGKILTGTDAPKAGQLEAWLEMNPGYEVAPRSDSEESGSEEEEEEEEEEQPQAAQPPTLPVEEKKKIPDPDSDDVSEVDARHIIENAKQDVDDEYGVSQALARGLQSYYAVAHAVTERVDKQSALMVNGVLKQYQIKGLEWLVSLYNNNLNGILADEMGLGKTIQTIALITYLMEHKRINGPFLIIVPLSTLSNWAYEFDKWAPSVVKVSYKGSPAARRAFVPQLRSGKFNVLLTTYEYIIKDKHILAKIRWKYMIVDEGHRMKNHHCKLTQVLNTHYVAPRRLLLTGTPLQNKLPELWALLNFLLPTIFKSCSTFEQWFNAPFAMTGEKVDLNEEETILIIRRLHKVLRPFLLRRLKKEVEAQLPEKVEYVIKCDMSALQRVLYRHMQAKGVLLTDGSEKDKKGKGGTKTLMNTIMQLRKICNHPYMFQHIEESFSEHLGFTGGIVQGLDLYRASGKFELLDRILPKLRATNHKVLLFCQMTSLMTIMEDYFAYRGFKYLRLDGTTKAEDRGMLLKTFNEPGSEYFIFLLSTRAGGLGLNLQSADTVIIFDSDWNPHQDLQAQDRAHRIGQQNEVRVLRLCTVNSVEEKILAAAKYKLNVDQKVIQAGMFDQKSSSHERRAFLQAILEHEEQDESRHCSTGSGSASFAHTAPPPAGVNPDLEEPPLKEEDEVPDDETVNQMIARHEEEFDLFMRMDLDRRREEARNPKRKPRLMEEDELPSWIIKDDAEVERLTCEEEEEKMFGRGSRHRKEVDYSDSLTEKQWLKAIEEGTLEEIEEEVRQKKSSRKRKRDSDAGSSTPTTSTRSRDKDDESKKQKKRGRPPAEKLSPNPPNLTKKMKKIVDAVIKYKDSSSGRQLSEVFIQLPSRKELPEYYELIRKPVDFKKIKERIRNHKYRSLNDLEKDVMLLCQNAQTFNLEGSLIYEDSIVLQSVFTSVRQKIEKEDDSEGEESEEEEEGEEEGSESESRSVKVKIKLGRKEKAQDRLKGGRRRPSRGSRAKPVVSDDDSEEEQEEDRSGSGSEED

For eleven molecules, DC50 and Dmax results are on record in US20260092071A1, “COMPOUNDS AND COMPOSITIONS AS SMARCA2/4 DEGRADERS AND USES THEREOF” (REGENTS OF THE UNIVERSITY OF MICHIGAN, priority 2022, published 2026).

Chain of SMARCA2 (P51531 whole entry): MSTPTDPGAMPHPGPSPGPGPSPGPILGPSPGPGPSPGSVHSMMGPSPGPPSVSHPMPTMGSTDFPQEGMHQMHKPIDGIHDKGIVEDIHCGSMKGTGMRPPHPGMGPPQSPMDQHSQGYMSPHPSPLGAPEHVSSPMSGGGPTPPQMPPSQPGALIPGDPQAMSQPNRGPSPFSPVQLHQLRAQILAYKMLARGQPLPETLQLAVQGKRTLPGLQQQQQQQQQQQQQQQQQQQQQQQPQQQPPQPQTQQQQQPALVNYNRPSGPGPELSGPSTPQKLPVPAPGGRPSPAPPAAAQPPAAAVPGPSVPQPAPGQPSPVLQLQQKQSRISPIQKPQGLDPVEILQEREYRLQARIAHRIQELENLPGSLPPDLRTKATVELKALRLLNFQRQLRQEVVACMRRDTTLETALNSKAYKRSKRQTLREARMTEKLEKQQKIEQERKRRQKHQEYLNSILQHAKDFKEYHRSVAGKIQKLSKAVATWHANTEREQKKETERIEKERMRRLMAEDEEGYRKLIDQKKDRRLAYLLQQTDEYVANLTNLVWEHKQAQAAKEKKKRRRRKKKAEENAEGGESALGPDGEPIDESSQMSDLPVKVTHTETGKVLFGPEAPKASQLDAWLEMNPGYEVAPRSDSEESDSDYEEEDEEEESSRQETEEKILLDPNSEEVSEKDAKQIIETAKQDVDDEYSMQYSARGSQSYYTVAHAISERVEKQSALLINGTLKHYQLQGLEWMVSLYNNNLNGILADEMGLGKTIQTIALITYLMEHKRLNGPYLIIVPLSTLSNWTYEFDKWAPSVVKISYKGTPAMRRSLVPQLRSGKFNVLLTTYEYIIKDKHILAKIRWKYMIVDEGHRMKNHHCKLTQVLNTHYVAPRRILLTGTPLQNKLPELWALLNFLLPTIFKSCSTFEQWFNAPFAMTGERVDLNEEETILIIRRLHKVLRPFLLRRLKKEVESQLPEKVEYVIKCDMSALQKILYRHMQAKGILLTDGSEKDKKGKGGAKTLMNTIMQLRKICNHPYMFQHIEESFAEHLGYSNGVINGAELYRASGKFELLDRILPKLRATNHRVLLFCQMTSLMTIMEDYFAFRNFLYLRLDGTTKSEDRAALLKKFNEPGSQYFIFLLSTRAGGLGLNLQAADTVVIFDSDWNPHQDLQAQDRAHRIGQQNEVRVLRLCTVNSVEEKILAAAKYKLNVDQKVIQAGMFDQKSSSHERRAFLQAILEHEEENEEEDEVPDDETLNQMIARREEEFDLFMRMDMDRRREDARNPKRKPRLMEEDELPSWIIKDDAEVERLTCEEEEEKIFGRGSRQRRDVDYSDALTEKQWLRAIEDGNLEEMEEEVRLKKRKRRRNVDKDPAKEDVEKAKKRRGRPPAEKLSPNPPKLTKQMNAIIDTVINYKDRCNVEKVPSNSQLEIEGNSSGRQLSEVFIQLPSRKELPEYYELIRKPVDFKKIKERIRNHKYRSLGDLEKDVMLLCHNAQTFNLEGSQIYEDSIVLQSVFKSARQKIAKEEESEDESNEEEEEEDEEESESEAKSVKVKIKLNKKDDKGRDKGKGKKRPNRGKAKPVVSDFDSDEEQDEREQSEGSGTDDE

For `Cc1cc([C@H](C(=O)N2C[C@H](O)C[C@H]2C(=O)N[C@@H](C)c2ccc(-c3scnc3C(=O)NCCCCOCCN3CCC(c4ccc5c(c4)-n4c(nc(=O)c6c(Cl)cccc64)C5(C)C)CC3)cc2)C(C)C)on1` [Compound B147, N-(4-(2-(4-(4-chloro-7,7-dimethyl-5-oxo-5,7-dihydroindolo[1,2-a]quinazolin-10-yl)piperidin-1-yl)ethoxy)butyl)-5-(4-((S)-1-((2S,4R)-4-hydroxy-1-((R)-3-methyl-2-(3-methylisoxazol-5-yl)butanoyl)pyrrolidine-2-carboxamido)ethyl)phenyl)thiazole-4-carboxamide], the DC50 in assay [1] lay in the range of 100 to 500 nM; in assay [2], 501 to 1000 nM. Further, the Dmax in assay [1] and in assay [2] was 50 to 69% throughout.

In the case of `CC#Cc1ccc([C@H](C)NC(=O)[C@@H]2C[C@@H](O)CN2C(=O)[C@H](C(C)C)n2cc([C@H]3CC[C@H](CN4CCC(c5ccc6c(c5)-n5c(nc(=O)c7c(Cl)cccc75)C6(C)C)CC4)CC3)nn2)cc1` [Compound B131, (2S,4R)-1-((S)-2-(4-((1r,4S)-4-((4-(4-chloro-7,7-dimethyl-5-oxo-5,7-dihydroindolo[1,2-a]quinazolin-10-yl)piperidin-1-yl)methyl)cyclohexyl)-1H-1,2,3-triazol-1-yl)-3-methylbutanoyl)-4-hydroxy-N-((S)-1-(4-(prop-1-yn-1-yl)phenyl)ethyl)pyrrolidine-2-carboxamide], the DC50 in assay [1] and in assay [2] was less than 100 nM each time. The Dmax is greater than 90% in assay [1] and 50 to 69% in assay [2].

Turning to `Cc1ncsc1-c1ccc2c(c1)CC[C@H]2NC(=O)[C@@H]1C[C@@H](O)CN1C(=O)[C@@H](n1cc([C@H]2CC[C@H](CN3CCC(c4ccc5c(c4)-n4c(nc(=O)c6c(Cl)cccc64)C5(C)C)CC3)CC2)nn1)C(C)(C)C` [Compound B122, (2S,4R)-1-((S)-2-(4-((1r,4S)-4-((4-(4-chloro-7,7-dimethyl-5-oxo-5,7-dihydroindolo[1,2-a]quinazolin-10-yl)piperidin-1-yl)methyl)cyclohexyl)-1H-1,2,3-triazol-1-yl)-3,3-dimethylbutanoyl)-4-hydroxy-N-((R)-5-(4-methylthiazol-5-yl)-2,3-dihydro-1H-inden-1-yl)pyrrolidine-2-carboxamide], the DC50 in assay [1] and in assay [2] was 100 to 500 nM each time. For the same molecule, the Dmax in assay [1] was 70 to 90%; in assay [2], less than 50%.

Take `Cc1nc(C)c(-c2ccc([C@H](C)NC(=O)[C@@H]3C[C@@H](O)CN3C(=O)[C@@H](n3cc([C@H]4CC[C@H](CN5CCN(c6ccc7c(c6)-n6c(nc(=O)c8c(Cl)cccc86)C7(C)C)CC5)CC4)nn3)C(C)(C)C)cc2)s1` [Compound B133, (2S,4R)-1-((S)-2-(4-((1r,4S)-4-((4-(4-chloro-7,7-dimethyl-5-oxo-5,7-dihydroindolo[1,2-a]quinazolin-10-yl)piperazin-1-yl)methyl)cyclohexyl)-1H-1,2,3-triazol-1-yl)-3,3-dimethylbutanoyl)-N-((S)-1-(4-(2,4-dimethylthiazol-5-yl)phenyl)ethyl)-4-hydroxypyrrolidine-2-carboxamide]: in assay [1], the DC50 is less than 100 nM and the Dmax is greater than 90%. Besides, in assay [2], the DC50 is less than 100 nM and the Dmax fell in the range of 70 to 90%.

On to `Cc1ncsc1-c1ccc([C@H](CN2CCOCC2)NC(=O)[C@@H]2C[C@@H](O)CN2C(=O)[C@@H](n2cc([C@H]3CC[C@H](CN4CCC(c5ccc6c(c5)-n5c(nc(=O)c7c(Br)cccc75)C65CCCCC5)CC4)CC3)nn2)C(C)(C)C)cc1` [Compound B112, (2S,4R)-1-((S)-2-(4-((1r,4S)-4-((4-(4′-bromo-5′-oxo-5′H-spiro[cyclohexane-1,7′-indolo[1,2-a]quinazolin]-10′-yl)piperidin-1-yl)methyl)cyclohexyl)-1H-1,2,3-triazol-1-yl)-3,3-dimethylbutanoyl)-4-hydroxy-N-((R)-1-(4-(4-methylthiazol-5-yl)phenyl)-2-morpholinoethyl)pyrrolidine-2-carboxamide], for which, in assay [1], the DC50 was less than 100 nM and the Dmax is greater than 90%.

In the case of `Cc1ncsc1-c1ccc([C@H](C)NC(=O)[C@@H]2C[C@@H](O)CN2C(=O)[C@H](C(C)C)n2cc(CC3CCC(N4CCC(c5cccc6c5C(C)(C)c5nc(=O)c7c(Cl)cccc7n5-6)CC4)CC3)nn2)cc1` (stereo partly drawn) [Compound B132, (2S,4R)-1-((S)-2-(4-((4-(4-(4-chloro-7,7-dimethyl-5-oxo-5,7-dihydroindolo[1,2-a]quinazolin-8-yl)piperidin-1-yl)cyclohexyl)methyl)-1H-1,2,3-triazol-1-yl)-3-methylbutanoyl)-4-hydroxy-N—((S)-1-(4-(4-methylthiazol-5-yl)phenyl)ethyl)pyrrolidine-2-carboxamide], the DC50 in assay [1] is less than 100 nM; in assay [2], 100 to 500 nM. In addition, the Dmax was greater than 90% in assay [1] and 70 to 90% in assay [2].

As for `Cc1ncsc1-c1ccc([C@H](CCCCCn2cc(-c3ccc4c(c3)C(C)(C)c3nc(=O)c5c(Cl)cccc5n3-4)cn2)NC(=O)[C@@H]2C[C@@H](O)CN2C(=O)[C@@H](NC(=O)C2(F)CC2)C(C)(C)C)cc1` [Compound B56, (2S,4R)—N—((S)-6-(4-(4-chloro-7,7-dimethyl-5-oxo-5,7-dihydroindolo[1,2-a]quinazolin-9-yl)-1H-pyrazol-1-yl)-1-(4-(4-methylthiazol-5-yl)phenyl)hexyl)-1-((S)-2-(1-fluorocyclopropane-1-carboxamido)-3,3-dimethylbutanoyl)-4-hydroxypyrrolidine-2-carboxamide], in assay [1], the DC50 fell in the range of 100 to 500 nM and the Dmax is less than 50%. In addition, in assay [2], the DC50 is greater than 1000 nM and the Dmax is less than 50%.

For the molecule `C[C@H](NC(=O)[C@@H]1C[C@@H](O)CN1C(=O)[C@@H](n1cc([C@H]2CC[C@H](CN3CCN(c4ccc5c(c4)-n4c(nc(=O)c6c(Cl)cccc64)C5(C)C)CC3)CC2)nn1)C(C)(C)C)c1ccc(-c2ccn[nH]2)cc1` [Compound B127, (2S,4R)-N-((S)-1-(4-(1H-pyrazol-5-yl)phenyl)ethyl)-1-((S)-2-(4-((1r,4S)-4-((4-(4-chloro-7,7-dimethyl-5-oxo-5,7-dihydroindolo[1,2-a]quinazolin-10-yl)piperazin-1-yl)methyl)cyclohexyl)-1H-1,2,3-triazol-1-yl)-3,3-dimethylbutanoyl)-4-hydroxypyrrolidine-2-carboxamide], in assay [1], the DC50 is less than 100 nM and the Dmax is greater than 90%. In addition, in assay [2], the DC50 was less than 100 nM and the Dmax lay within 70 to 90%.

Regarding `Cc1ncsc1-c1ccc([C@H](C)NC(=O)[C@@H]2C[C@@H](O)CN2C(=O)[C@H](C(C)C)n2cc(OCCN3CCC(c4ccc5c(c4)C(C)(C)c4nc(=O)c6c(Cl)cccc6n4-5)CC3)cn2)cc1` [Compound B57, (2S,4R)-1-(2-(4-(2-(4-(4-chloro-7,7-dimethyl-5-oxo-5,7-dihydroindolo[1,2-a]quinazolin-9-yl)piperidin-1-yl)ethoxy)-1H-pyrazol-1-yl)-3-methylbutanoyl)-4-hydroxy-N—((S)-1-(4-(4-methylthiazol-5-yl)phenyl)ethyl)pyrrolidine-2-carboxamide], in assay [1], the DC50 lay within 100 to 500 nM and the Dmax is 70 to 90%. Further, in assay [2], the DC50 lay within 501 to 1000 nM and the Dmax was less than 50%.

`Cc1ncsc1-c1ccc([C@H](C)NC(=O)[C@@H]2C[C@@H](O)CN2C(=O)C(c2cc(CN3CCC(c4ccc5c(c4)-n4c(nc(=O)c6c(Cl)cccc64)C5(C)C)CC3)no2)C(C)C)cc1` (stereo partly drawn) [Compound B62, (2S,4R)-1-(2-(3-((4-(4-chloro-7,7-dimethyl-5-oxo-5,7-dihydroindolo[1,2-a]quinazolin-10-yl)piperidin-1-yl)methyl)isoxazol-5-yl)-3-methylbutanoyl)-4-hydroxy-N-((S)-1-(4-(4-methylthiazol-5-yl)phenyl)ethyl)pyrrolidine-2-carboxamide]: in assay [1], the DC50 was less than 100 nM and the Dmax lay within 50 to 69%. Besides, in assay [2], the DC50 was greater than 1000 nM and the Dmax was less than 50%.

For the molecule `Cc1ncsc1-c1ccc(C2(NC(=O)[C@@H]3C[C@@H](O)CN3C(=O)[C@@H](n3cc([C@H]4CC[C@H](CN5CCC(c6ccc7c(c6)-n6c(nc(=O)c8c(Cl)cccc86)C7(C)C)CC5)CC4)nn3)C(C)(C)C)CN(C)C2)cc1` [Compound B124, (2S,4R)-1-((S)-2-(4-((1r,4S)-4-((4-(4-chloro-7,7-dimethyl-5-oxo-5,7-dihydroindolo[1,2-a]quinazolin-10-yl)piperidin-1-yl)methyl)cyclohexyl)-1H-1,2,3-triazol-1-yl)-3,3-dimethylbutanoyl)-4-hydroxy-N-(1-methyl-3-(4-(4-methylthiazol-5-yl)phenyl)azetidin-3-yl)pyrrolidine-2-carboxamide], in assay [1], the DC50 is less than 100 nM and the Dmax fell in the range of 70 to 90%. In assay [2], the DC50 lay in the range of 100 to 500 nM and the Dmax is less than 50%.
